Experimental data: patent publication US8168806B2, “Boron chelate complexes” (Chemetall GmbH, priority 2001, dated 2012)
Read-outs that look alike come from different tables or passages of the source.

Assays:
[1] = room temperature; for Cond. (conductivity): at the concentration (mmole/g) printed in the cell to the left
[2] = thermogravimetry
[3] = room temperature
[4] = 5% solution in water, stirring for 2 hours, room temperature
[5] = 0.5 molar solution in γ-butyrolactone, nickel electrodes, FIG. 1
[6] = Qualitative solubility of the product of Example 3 in organic solvents; type: physicochemical; conditions: in propylene carbonate, γ-butyrolactone, 1,2-dimethyoxyethane, acetone and dimethylformamide
[7] = prior art statement; cited from earlier work
[8] = in propylene carbonate; Xu and Angell 2001; cited from earlier work
[9] = in 1,2-DME (1,2-dimethoxyethane)

SMILES | Cond. (conductivity) ([1]; in 1,2-DME) [mS/cm] | Cond. (conductivity) ([1]; in THF) [mS/cm] | TGA: decomposition starts at [2] | Solubility [3, 9] [mol/kg] | Solubility ([3]; in PC (propylene carbonate)) [mol/kg] | Solubility ([3]; in THF (tetrahydrofuran)) [mol/kg] | Solubility ([3]; in acetone) [mol/kg] | Solubility ([3]; in γ-BL (γ-butyrolactone)) [mol/kg] | Cond. (conductivity) ([1]; in γ-BL) [mS/cm] | Degree of hydrolysis [4] [%] | Electrochemical window (upper limit of stability, Li/Li+=0) [5] | Solubility in words [6] | Concn. column: solubility in words ([1]; in 1,2-DME) | Concn. column: solubility in words ([1]; in THF) | Electrochemical stability / electrochemical window up to [7] | Solubility [8] [M]
O=C1O[B-]2(OC1=O)OC(=O)c1ccccc1O2.[Li+] [LOSB, Lithium-(oxalato,salicylato)borate] | 4.17 | 3.17 | ca. 210 °C | 0.43 | 1.50 | 1.21 | 0.51 | 0.98 | – | – | – | – | – | – | – | –
O=C1CC(=O)O[B-]2(O1)OC(=O)C(=O)O2.[Li+] [LOMB, Lithium-(malonato,oxalato)borate] | – | 0.41 | – | 0.20 | 0.17 | 0.17 | 0.43 | 0.62 | 3.59 | 15 | – | – | – | – | – | –
CC1O[B-]2(OC(=O)C(=O)O2)OC1=O.[Li+] (stereo not shown) [LLOB, Lithium-(lactato,oxalato)borate] | 6.52 | 2.91 | ca. 270 °C | 0.93 | 0.17 | 1.59 | 1.38 | 0.96 | 2.61 | – | ca. 5 V | – | – | – | – | –
O=C1O[B-]2(OC1=O)OC(=O)c1ccccc1O2.[H+] [HSOB, hydrogen-(salicylato, oxalato)borate] | – | – | – | – | – | – | – | – | – | – | – | extremely soluble | – | – | – | –
CC1O[B-]2(OC1=O)OC(=O)C(C)O2.[Li+] (stereo not shown) [LLB, Lithium-bis(lactato)borate] | 0 | 0 | – | <0.01 | <0.01 | <0.01 | <0.01 | 0.02 | 0.01 | – | – | – | insoluble | insoluble | – | –
O=C1O[B-]2(OC1=O)OC(=O)C(=O)O2.[Li+] [LOB, Lithium-bis(oxalato)borate] | – | – | – | 1.30 | 0.88 | 1.90 | 1.82 | 1.55 | 6.96 | >50 | – | – | – | – | about 4.5 V | –
O=C1CC(=O)O[B-]2(O1)OC(=O)CC(=O)O2.[Li+] [LMB, Lithium-bis(malonato)borate] | – | 0.01 | – | 0.003 | 0.02 | 0.09 | 0.03 | 0.13 | 1.65 | 5 | – | – | – | – | up to 5 V | 0.08
